# Laboratory results from ChEMBL document CHEMBL1201862, “PubChem BioAssay data set” (2004).
# Calls of active or inactive are those of the source.
# Experiments:
# Large T antigen = Large T antigen (Simian virus 40, UniProt P03070); type: functional, Betapolyomavirus macacae;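 also: Confirmatory-stage PubChem screen for compounds that inhibit SV40 T antigen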
# [1] = target: T1, Rac GTPase-activating protein 1 (Homo sapiens, UniProt Q9H0H5); test: MgcRacGAP GTPase-activating activity inhibitors, confirmation, biochemical, ADP Hunter fluorescence, primary and confirmatory (AID 624330); type: functional
# T1 sequence (Q9H0H5 whole entry): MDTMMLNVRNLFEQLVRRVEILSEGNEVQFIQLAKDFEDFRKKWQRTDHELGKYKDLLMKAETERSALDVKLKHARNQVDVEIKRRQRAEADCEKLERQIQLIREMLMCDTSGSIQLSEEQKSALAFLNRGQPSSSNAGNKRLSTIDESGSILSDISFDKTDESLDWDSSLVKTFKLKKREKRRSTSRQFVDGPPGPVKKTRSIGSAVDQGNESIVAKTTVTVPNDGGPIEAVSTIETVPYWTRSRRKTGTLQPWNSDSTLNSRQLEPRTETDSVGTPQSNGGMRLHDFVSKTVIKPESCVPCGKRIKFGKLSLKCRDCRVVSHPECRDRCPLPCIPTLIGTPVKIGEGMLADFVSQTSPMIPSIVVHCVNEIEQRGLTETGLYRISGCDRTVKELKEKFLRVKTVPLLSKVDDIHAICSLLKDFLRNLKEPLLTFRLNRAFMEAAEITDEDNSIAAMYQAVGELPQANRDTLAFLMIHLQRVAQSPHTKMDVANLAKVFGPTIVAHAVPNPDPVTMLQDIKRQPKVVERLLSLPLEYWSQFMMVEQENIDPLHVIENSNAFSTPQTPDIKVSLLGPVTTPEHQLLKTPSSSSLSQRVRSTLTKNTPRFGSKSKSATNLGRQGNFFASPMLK
# H9c2 = test: cells; type: functional, cell-based; settings: Rattus norvegicus, H9c2, Myocardium;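 also: confirmatory concentration-response retest of ultra-high-throughput screening hits for modulation of myocardial damage; cell death induced by hydrogen peroxide oxidative stress; compound pretreatment for 60 min then peroxide exposure for 2 h; potency is for protecting the cells against peroxide damage rather than for killing them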
# cells [2] = type: functional
# cells [3] = type: functional, cell-based
# [4] = target: T2, Heat shock factor protein 1 (Mus musculus, UniProt P38532); test: inhibition of MG132-induced HSE-luciferase signal, confirmation, cell-based, NIH3T3, luminescence, dose retest (AID 2382); type: functional;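 also: NIH3T3 fibroblasts with HSF1-driven luciferase reporter stressed by proteasome inhibitor MG132; luminescence from HSF1-driven luciferase expression after 8 hours of MG132 stress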
# T2 sequence (P38532 whole entry): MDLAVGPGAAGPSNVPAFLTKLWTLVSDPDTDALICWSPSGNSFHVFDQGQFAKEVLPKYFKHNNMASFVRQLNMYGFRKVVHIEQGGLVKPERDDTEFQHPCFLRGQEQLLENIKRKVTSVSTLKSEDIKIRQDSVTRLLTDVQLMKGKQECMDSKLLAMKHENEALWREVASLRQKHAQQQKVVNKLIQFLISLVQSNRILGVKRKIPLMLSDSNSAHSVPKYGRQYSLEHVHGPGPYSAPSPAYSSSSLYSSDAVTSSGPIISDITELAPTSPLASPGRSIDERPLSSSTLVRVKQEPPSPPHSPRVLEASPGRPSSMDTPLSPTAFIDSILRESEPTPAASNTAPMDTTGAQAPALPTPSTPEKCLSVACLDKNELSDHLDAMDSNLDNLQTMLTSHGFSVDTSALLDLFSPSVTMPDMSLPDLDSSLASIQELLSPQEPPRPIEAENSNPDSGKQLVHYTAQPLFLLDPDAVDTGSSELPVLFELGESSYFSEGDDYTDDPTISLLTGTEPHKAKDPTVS
# cells [5] = type: functional, cell-based; remark: listed apart in the source
# Fatty acid synthase = Fatty acid synthase (Homo sapiens, UniProt P49327); test: FAS thioesterase domain inhibitors, dose response, biochemical, kinetic fluorescence intensity (AID 624326); type: functional;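 also: rate of fluorescence rise from hydrolysis of a fluorogenic O-methyl fluorescein ester substrate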
# [6] = target: T3, Replicative DNA helicase DnaB (Mycobacterium tuberculosis, UniProt P9WMR3); test: DnaB intein splicing inhibitors, dose response, biochemical, cell-free fluorescence (AID 449749); type: functional
# T3 sequence (P9WMR3 whole entry): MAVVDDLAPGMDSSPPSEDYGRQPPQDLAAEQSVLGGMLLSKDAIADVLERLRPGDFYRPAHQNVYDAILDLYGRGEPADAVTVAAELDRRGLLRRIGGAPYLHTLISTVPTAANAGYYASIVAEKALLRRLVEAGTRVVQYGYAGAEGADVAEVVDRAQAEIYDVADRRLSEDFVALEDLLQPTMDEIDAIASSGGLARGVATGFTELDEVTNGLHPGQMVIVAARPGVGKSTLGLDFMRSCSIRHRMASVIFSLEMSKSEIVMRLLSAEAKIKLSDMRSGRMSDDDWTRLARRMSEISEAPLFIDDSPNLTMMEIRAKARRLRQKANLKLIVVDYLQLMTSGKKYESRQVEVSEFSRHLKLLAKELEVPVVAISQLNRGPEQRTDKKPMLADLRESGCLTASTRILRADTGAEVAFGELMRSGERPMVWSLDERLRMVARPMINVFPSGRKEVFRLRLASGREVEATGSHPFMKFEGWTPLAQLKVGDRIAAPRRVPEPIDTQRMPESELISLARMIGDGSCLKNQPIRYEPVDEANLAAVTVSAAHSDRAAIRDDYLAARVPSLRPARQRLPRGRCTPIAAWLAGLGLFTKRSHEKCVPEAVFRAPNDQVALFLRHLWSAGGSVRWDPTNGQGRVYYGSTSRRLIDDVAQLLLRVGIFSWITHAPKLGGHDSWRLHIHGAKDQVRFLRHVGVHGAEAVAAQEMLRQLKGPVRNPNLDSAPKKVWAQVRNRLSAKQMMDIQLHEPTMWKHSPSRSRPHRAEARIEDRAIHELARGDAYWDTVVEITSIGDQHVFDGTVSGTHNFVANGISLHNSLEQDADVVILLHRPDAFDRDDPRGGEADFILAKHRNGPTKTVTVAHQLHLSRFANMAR
# Protein RecA = target: T4, Protein RecA (Mycobacterium tuberculosis, UniProt P9WHJ3); test: Fluorescence Cell-Free Homogeneous Dose Retest to Identify Inhibitors of RecA-Intein Splicing Activity. [Related pubchem assays (depositor defined):AID2097, AID2223, AID489010, AID492950]; type: functional
# T4 sequence (P9WHJ3 whole entry): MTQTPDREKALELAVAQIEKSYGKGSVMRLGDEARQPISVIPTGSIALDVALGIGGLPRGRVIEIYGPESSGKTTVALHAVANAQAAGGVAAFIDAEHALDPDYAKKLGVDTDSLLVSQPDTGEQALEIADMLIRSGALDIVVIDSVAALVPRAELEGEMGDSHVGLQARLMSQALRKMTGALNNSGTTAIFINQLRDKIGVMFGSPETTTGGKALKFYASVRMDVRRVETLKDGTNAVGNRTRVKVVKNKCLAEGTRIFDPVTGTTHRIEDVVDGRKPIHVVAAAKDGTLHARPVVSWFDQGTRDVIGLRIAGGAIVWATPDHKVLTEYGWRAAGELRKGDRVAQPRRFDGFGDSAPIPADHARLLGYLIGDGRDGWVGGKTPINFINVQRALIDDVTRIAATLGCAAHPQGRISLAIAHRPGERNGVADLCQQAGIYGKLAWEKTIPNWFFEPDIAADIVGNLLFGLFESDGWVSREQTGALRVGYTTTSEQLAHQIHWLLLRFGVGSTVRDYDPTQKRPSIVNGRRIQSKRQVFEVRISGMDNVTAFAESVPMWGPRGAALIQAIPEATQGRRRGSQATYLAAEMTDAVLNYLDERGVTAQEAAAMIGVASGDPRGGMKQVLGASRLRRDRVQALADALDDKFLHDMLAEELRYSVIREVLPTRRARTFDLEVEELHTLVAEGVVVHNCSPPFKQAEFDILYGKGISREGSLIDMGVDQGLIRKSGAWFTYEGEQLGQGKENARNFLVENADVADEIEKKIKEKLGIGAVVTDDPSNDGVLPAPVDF
# [7] = intracellular Trypanosoma cruzi inhibitors in host cells – cell-based, plate reader, cherry-pick samples, set 3, dose response (AID 651818); type: functional;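 also: compounds incubated with infected cells for about four days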
# [8] = target: FAD-linked sulfhydryl oxidase ALR (Homo sapiens, UniProt P55789); test: inhibitors of human ALR sulfhydryl oxidase, dose response, biochemical, H2O2 detection, luminescence, cherry-pick (AID 493248)
# [9] = P. falciparum Dd2 growth inhibitors, dose response, SYBR Green, cherry-picked samples (AID 1159567); type: functional, cell-based
# Large T antigen, sequence (P03070 whole entry): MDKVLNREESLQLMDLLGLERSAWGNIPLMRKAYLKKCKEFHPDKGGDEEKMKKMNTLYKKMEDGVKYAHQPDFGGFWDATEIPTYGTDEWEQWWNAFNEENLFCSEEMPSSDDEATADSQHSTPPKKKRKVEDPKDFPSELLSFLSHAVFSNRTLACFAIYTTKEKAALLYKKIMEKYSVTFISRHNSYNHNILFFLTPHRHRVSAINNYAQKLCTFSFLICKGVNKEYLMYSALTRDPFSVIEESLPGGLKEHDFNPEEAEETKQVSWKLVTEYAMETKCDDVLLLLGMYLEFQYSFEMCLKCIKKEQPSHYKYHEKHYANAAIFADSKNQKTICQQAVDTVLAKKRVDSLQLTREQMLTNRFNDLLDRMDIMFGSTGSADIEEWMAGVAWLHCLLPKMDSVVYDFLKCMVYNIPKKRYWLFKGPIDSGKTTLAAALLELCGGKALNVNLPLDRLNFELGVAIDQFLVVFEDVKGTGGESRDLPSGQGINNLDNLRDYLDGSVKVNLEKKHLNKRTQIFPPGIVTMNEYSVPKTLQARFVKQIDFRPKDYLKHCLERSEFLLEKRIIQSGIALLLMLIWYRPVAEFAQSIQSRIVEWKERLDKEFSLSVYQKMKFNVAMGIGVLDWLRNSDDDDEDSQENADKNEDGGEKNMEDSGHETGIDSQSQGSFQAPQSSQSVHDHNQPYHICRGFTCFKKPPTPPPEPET
# Fatty acid synthase, sequence (P49327 whole entry, the tested form may be a part): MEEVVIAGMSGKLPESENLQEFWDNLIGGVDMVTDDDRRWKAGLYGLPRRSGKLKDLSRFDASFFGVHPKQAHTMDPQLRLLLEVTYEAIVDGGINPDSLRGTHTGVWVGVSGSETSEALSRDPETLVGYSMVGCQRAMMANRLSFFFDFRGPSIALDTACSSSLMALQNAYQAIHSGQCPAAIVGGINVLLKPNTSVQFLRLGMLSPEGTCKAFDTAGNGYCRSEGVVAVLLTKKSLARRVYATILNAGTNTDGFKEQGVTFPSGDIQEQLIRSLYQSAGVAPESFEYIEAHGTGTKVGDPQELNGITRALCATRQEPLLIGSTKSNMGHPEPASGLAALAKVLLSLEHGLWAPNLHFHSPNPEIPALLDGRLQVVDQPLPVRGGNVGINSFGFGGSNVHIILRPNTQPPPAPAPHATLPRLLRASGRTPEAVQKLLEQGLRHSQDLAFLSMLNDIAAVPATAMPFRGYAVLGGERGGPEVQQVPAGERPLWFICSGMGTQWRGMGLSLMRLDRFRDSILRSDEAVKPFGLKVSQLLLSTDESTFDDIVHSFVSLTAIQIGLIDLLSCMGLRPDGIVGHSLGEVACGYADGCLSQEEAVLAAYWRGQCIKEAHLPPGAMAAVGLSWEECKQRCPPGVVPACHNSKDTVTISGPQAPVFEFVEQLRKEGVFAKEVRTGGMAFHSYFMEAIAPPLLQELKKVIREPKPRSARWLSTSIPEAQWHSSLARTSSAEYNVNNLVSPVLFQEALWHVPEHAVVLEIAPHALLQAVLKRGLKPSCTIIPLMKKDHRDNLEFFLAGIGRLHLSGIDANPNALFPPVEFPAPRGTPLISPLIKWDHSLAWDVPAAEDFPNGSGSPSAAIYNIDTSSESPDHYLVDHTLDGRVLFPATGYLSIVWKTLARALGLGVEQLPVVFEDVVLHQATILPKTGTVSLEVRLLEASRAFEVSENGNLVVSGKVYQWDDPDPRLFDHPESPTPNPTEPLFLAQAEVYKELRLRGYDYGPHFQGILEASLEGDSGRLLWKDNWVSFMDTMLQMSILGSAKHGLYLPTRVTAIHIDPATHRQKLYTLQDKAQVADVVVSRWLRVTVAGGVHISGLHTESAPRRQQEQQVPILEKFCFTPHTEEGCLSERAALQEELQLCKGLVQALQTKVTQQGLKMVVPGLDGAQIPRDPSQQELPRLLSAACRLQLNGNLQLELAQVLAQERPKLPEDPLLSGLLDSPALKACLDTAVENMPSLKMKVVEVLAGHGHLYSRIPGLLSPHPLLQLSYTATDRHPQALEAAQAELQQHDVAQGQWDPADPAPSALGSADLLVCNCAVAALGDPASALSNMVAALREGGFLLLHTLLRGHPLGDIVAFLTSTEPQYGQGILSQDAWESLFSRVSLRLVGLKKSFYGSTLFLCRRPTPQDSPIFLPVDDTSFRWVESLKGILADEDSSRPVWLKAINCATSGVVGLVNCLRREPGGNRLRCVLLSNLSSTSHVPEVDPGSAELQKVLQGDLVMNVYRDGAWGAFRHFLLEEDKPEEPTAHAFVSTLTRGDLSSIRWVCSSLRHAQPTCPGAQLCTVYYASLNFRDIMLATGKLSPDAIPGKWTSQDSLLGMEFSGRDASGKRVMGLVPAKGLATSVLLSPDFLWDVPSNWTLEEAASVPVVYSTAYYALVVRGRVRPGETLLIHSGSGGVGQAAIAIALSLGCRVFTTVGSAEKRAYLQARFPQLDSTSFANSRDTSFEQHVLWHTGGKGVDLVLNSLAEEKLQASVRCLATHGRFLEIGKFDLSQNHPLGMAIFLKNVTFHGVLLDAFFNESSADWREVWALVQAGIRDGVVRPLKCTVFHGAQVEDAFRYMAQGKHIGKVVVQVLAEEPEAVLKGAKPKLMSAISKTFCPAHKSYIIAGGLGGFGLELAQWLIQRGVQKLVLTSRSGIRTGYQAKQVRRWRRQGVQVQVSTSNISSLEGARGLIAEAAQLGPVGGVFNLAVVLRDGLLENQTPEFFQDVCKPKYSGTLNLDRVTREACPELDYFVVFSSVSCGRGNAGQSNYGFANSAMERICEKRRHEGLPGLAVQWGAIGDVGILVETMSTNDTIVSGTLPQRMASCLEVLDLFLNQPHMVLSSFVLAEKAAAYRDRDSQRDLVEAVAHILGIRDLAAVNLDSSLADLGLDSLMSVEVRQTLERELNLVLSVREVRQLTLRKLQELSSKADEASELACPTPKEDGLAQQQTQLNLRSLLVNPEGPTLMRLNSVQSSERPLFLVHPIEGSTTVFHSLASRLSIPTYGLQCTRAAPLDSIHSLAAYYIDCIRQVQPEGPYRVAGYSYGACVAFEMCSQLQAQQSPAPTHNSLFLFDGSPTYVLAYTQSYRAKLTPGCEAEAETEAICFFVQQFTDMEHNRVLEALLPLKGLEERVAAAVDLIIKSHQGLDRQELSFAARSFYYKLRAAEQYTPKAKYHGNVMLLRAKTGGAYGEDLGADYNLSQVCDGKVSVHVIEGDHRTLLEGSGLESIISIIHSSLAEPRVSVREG
# FAD-linked sulfhydryl oxidase ALR, sequence (P55789 whole entry): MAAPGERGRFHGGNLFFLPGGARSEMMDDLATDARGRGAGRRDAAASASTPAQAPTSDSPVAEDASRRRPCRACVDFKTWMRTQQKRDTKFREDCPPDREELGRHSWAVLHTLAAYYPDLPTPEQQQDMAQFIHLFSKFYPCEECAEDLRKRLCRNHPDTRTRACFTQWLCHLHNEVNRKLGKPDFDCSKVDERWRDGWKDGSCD
structure (smiles),measurement,setting,value
O=c1cc(-c2ccc(O)c(O)c2)oc2cc(O)c(C3OC(CO)C(O)C(O)C3O)c(O)c12 (centres undefined),IC50,Large T antigen,5.23 µM (active)
same,IC50,[1],42.9 µM (active)
O=C(NCc1ccco1)c1cc(-c2cccnc2)nc2ccc(Cl)cc12,IC50,H9c2,> 79 µM (inactive)
COc1ccc(N2C(=O)CC(Sc3n[nH]c(-c4cccc(C)c4)n3)C2=O)cc1 (centres undefined),IC50,Large T antigen,76.5 µM (active)
CCOc1cc(N2CCOCC2)c(OCC)cc1NC(=O)COC(=O)CCOc1ccc(C)cc1,IC50,Large T antigen,> 100 µM (active)
O=C(NN=C(Cc1ccccc1)Cc1ccccc1)c1ccncc1,IC50,cells [2],0.17 µM (active)
O=C(O)c1ccccc1C(=O)NC1=NN(c2ccccc2)CC1,IC50,Large T antigen,14.2 µM (active)
CCCCCn1c(=O)c(C(=O)NCc2ccccn2)c(O)c2ccccc21,IC50,H9c2,5.88 µM (active)
C=CCc1c(C)nc2c(-c3ccccc3)cnn2c1N1CCOCC1,EC50,cells [3],> 350 µM (not active)
same,EC50,[4],> 195 µM (not active)
same,EC50,cells [5],> 350 µM (not active)
Cc1nc(N2CCN(c3ccccn3)CC2)c2c(C)c(C(=O)Nc3ccc(F)cc3)sc2n1,IC50,H9c2,> 79 µM (inactive)
COc1cc(C(=O)NCCCNc2nc3cc(C)cc(C)c3cc2C#N)cc(OC)c1OC,IC50,H9c2,> 79 µM (inactive)
Cc1cc(C)c(S(=O)(=O)N2CCN(C(=O)c3cc(O)nc4ccccc34)CC2)c(C)c1,IC50,H9c2,> 79 µM (inactive)
CC(C)(C)OC(=O)NCCCC[C@H](NC(=O)c1[nH]cnc1C(=O)NCC(=O)OCc1ccccc1)C(=O)OC(C)(C)C,IC50,Fatty acid synthase,0.16 µM (active)
Cc1ccc(NC(=O)COC(=O)C2=COCCO2)c([N+](=O)[O-])c1,IC50,cells [2],3.39 µM (active)
COc1ccc(C(=O)Nc2ccc(O)c3ccccc23)cc1,AC50,[6],1.22 µM (active)
same,IC50,Large T antigen,30.8 µM (active)
same,EC50,Protein RecA,0.0744 µM (active)
CCC(Oc1ccccc1)C(=O)Nc1ccccc1C(=O)N1CCCCC1 (centres undefined),IC50,H9c2,23.8 µM (active)
COc1cc(NC(=O)c2ccc(-c3cn[nH]c3)c3ccoc23)cc(OC)c1OC,IC50,H9c2,> 79 µM (inactive)
C[C@H]1CN([C@@H](C)CO)C(=O)c2cc(NS(=O)(=O)c3ccccc3)ccc2O[C@H]1CN(C)Cc1ccc(Cl)c(Cl)c1,AC50,[7],5.12 µM (active)
C[C@@H]1CN([C@H](C)CO)C(=O)Cc2cc(NC(=O)Cc3cn(C)c4ccccc34)ccc2O[C@H]1CN(C)Cc1ccc(Cl)c(Cl)c1,AC50,[7],3.78 µM (active)
C[C@H](CO)N1C[C@H](C)[C@H](CN(C)Cc2ccc(C(F)(F)F)cc2)Oc2ccc(NC(=O)Nc3ccc4c(c3)OCO4)cc2CC1=O,AC50,[7],5.85 µM (active)
C[C@@H]1CN([C@H](C)CO)C(=O)Cc2cc(NC(=O)Nc3ccc(C(F)(F)F)cc3)ccc2O[C@@H]1CN(C)S(=O)(=O)c1ccc(F)cc1,AC50,[7],7.08 µM (active)
C[C@@H]1CN([C@H](C)CO)C(=O)c2cccc(NC(=O)NC3CCCCC3)c2O[C@H]1CN(C)Cc1ccc(C(F)(F)F)cc1,AC50,[7],1.86 µM (active)
C[C@@H]1CN([C@H](C)CO)C(=O)Cc2cc(NC(=O)Nc3ccc4c(c3)OCO4)ccc2O[C@@H]1CN(C)Cc1ccc(Cl)c(Cl)c1,AC50,[7],3.71 µM (active)
C[C@H](CO)N1C[C@H](C)[C@H](CN(C)CC2CCCCC2)Oc2c(NC(=O)c3nc4ccccc4s3)cccc2C1=O,AC50,[7],3.31 µM (active)
C[C@@H]1CN([C@@H](C)CO)C(=O)Cc2cc(NC(=O)Nc3ccc(C(F)(F)F)cc3)ccc2O[C@@H]1CN(C)S(=O)(=O)c1ccccc1,AC50,[7],3.88 µM (active)
COc1cccc(C(C[N+](=O)[O-])c2c(C)[nH]n(-c3ccccc3)c2=O)c1 (centres undefined),AC50,[6],16.5 µM (active)
same,EC50,cells [3],> 350 µM (not active)
same,EC50,Protein RecA,2.25 µM (active)
same,EC50,cells [5],> 350 µM (not active)
CCN(CC)S(=O)(=O)c1ccc(N/N=C/c2ccc(O)cc2)nc1,IC50,Large T antigen,11.5 µM (active)
same,IC50,[1],31.5 µM (active)
COc1cc(/C=N\NC(=O)CNC(=O)c2cccc([N+](=O)[O-])c2)ccc1O,IC50,Large T antigen,3.75 µM (active)
same,AC50,[8],2.41 µM (active)
same,IC50,[1],16.5 µM (active)
CO[C@H]1CN(C)C(=O)c2ccc(NS(=O)(=O)CC(F)(F)F)cc2OC[C@@H](C)N(Cc2nccs2)C[C@H]1C,AC50,[9],> 39 µM (inactive)
